In paper PMC4710668, “Bioactivation of food genotoxicants 5-hydroxymethylfurfural and furfuryl alcohol by sulfotransferases from human, mouse and rat: a comparative study” (Archives of Toxicology, 2014):
Where “and” joins values, the source holds several entries; their conditions need not be identical. Equal entries are not always repeated.

Columns and labels:
Assay in all cases: FFA sulfoconjugation assay (N6-MF-A formation with adenosine as scavenger)
Format in all cases: biochemical
hSULT1C1 = biological target: T1, hSULT1C1 (Homo sapiens, UniProt O00338)
T1 construct: made in house; host or cells: Salmonella typhimurium TA1538 (cytosolic fraction, not purified)
Protocol: (§1) Cytosolic fractions containing individual SULT forms were prepared from transgenic S. typhimurium TA1538. Table S1 in the Supplementary Material provides a summary of the thirty SULTs used in the current study together with references describing the cloning of the respective S. typhimurium TA1538 strains. The expressed SULT forms are denoted with the prefixes h, m and r for human, mouse and rat enzymes, respectively. Bacteria were grown in Luria Broth medium containing ampicillin (100 µg/ml) by stirring for 8 h at 200 revolutions/min at 37 °C. The bacterial suspensions were centrifuged at 5,000 g for 10 min. The sediments were washed twice with 25 ml of 10 mM potassium phosphate buffer (pH 7.4)/50 mM potassium chloride (KCP buffer) and centrifuged again. The pellets were taken up in 800 µl KCP buffer and sonicated thrice for 15 s with 30 s pauses in between. The soluble fraction was attained by centrifuging for 1 h at 100,000 g. The supernatants (in the following termed cytosolic preparations) were frozen at −80 °C. The protein concentrations were determined according to a bicinchoninic acid (BCA) assay protocol. The SULT concentrations in the cytosolic preparations were estimated after electrophoretic separation and immunodetection using inclusion bodies of different SULT forms as standards (Teubner et al. [2007]). The preparation of SULT inclusion bodies and the immunodetection of SULTs is described in the Supplementary Material, which also contains a representative immunoblot of different amounts of rSult1a1standard and a cytosolic preparation of S. typhimurium expressing rSult1a1 (Fig. S1).
(§2) The reaction mixtures were prepared as described for HMF. In addition, they contained 10 mM adenosine as a nucleophilic scavenger. Following incubation for 20 min at 37 °C, sulfoconjugation reactions were stopped by adding 100 µl cold methanol containing 175 fmol of [^15N5]N ^6-MF-A as the internal standard, mixed and centrifuged at 15,000 g for 10 min. The clear supernatants were subjected to UPLC-MS/MS analyses. Incubations were performed as quadruplicates. At higher concentrations, FFA reacts spontaneously with adenosine at low, but detectable, levels. To correct for the SULT-independent adduct formation, mixtures with SULT-deficient cytosols were carried along simultaneously in duplicate. Controls were subtracted from the experimental samples.
(§3) The ribonucleoside adduct N ^6-((furan-2-yl)methyl)-adenosine (N ^6-MF-A) was analyzed by isotope-dilution UPLC-MS/MS with the same system described above using a HSS T3 column (1.8 µm, 2.1 × 100 mm, Waters). Samples of 8 µl were eluted with 10 mM ammonium bicarbonate buffer, pH 8.0 (A) and methanol (B) using an 6-min gradient from 98 % solvent A to 15 % solvent A at 0.35 ml/min flow rate (Yin et al. [2013]). The electrospray interface of the mass spectrometer operated in the positive ion mode. The fragmentations of N ^6-MF-A into the aglycone cation [N ^6-((furan-2-yl)methyl)-adenine-H]^+ (m/z = 348.1 → 216.1), the cleavage of the 2-methylfuranyl cation (m/z = 348.1 → 81.0) and the release of [N ^6-methyl-adenine-H]^+ (m/z = 348.1 → 148.0) were monitored together with the corresponding fragmentations of the isotope-labeled internal standard [^15N5]N ^6-MF-A for the formation of the aglycone (m/z = 353.1 → 221.1), the 2-methylfuran cation (m/z = 353.1 → 81.0) and ^15N5-labeled N ^6-methyl-adenine (m/z = 353.1 → 153.0). The N ^6-MF-A content of the incubation mixture was calculated from the ratio of peak areas resulting from the total ion current of all three MRM signals of the analyte. For the fragmentation of N ^6-MF-A ([^15N5]N ^6-MF-A), collision energies were 20, 25 and 35 eV for the transitions m/z = 348.1 → 216.1 (m/z = 353.1 → 221.1), m/z = 348.1 → 148.0 (m/z = 353.1 → 153.0) and m/z = 348.1 → 81.0 (m/z = 353.1 → 81.0), respectively. […]

mSult2a2 = biological target: T2, mSult2a2 (Mus musculus, UniProt P50236)
T2 construct: made in house; host or cells: Salmonella typhimurium TA1538 (cytosolic fraction, enzyme not purified)
T2 sequence (P50236 1-285): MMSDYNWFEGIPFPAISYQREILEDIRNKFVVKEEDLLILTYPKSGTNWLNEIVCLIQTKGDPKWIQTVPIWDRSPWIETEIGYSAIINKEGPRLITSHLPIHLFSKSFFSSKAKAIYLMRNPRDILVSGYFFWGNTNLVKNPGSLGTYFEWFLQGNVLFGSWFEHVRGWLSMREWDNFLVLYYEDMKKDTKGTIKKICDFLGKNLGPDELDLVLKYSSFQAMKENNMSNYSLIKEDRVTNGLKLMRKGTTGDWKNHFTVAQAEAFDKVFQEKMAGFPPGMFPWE
Protocol: as §1, §2, §3

hSULT1A1 = biological target: T3, hSULT1A1 (Homo sapiens, UniProt P50225)
T3 construct: made in house; host or cells: Salmonella typhimurium TA1538 (cytosolic fraction, not purified)
Protocol: as §1, §2, §3

mSult1e1 = biological target: T4, mSult1e1 (Mus musculus, UniProt P49891)
T4 construct: made in house; host or cells: Salmonella typhimurium TA1538 (cytosolic fraction, enzyme not purified)
T4 sequence (P49891 1-295): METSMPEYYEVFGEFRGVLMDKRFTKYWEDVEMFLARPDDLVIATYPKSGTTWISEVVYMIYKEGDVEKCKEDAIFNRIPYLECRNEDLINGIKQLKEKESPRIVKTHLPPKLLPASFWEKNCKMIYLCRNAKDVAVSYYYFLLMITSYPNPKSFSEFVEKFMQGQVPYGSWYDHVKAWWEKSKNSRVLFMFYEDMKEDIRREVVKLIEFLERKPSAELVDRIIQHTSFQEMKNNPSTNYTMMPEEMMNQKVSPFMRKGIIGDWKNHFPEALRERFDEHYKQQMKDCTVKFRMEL
Protocol: as §1, §2, §3

rSult2a3 = biological target: T5, rSult2a3 (Rattus norvegicus, UniProt P22789)
T5 construct: made in house; host or cells: Salmonella typhimurium TA1538 (cytosolic fraction, enzyme not purified)
T5 sequence (P22789 2-284 limits assumed): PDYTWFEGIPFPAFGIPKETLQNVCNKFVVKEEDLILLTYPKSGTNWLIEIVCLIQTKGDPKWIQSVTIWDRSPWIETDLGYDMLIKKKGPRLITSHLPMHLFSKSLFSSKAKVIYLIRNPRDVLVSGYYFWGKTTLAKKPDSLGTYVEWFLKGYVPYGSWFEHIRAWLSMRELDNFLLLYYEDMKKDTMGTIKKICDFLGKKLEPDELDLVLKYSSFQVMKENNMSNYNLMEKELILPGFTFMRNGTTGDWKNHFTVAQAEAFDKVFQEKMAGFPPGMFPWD
Protocol: as §1, §2, §3

T3 sequence (P50225 whole entry): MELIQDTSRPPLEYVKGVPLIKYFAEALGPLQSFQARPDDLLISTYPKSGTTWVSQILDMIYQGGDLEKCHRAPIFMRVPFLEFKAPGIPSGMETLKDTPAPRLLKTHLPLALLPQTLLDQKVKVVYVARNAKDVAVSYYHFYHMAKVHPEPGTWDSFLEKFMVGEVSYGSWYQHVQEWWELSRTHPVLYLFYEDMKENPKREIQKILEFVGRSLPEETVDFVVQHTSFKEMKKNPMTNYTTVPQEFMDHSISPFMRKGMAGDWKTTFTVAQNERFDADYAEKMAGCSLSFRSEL
T1 sequence (O00338 whole entry): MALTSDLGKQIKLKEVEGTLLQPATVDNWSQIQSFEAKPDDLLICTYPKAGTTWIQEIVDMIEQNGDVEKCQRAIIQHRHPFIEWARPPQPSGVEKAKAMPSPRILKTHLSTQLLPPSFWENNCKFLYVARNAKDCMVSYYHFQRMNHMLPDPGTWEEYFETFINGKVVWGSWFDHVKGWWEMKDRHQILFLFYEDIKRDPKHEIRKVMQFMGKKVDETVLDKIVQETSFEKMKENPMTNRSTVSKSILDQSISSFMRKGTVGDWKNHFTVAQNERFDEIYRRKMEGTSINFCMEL

OCc1ccco1 [FFA, furfuryl alcohol]
Rate of N6-MF-A formation (hSULT1C1; 0.1 mM FFA): <18 fmol N ^6-MF-A/mg/min | Rate of N6-MF-A formation (hSULT1C1; 1 mM FFA): <20 fmol N ^6-MF-A/mg/min | Rate of N6-MF-A formation (hSULT1C1; 10 mM FFA): <44 fmol N ^6-MF-A/mg/min | Rate of N6-MF-A formation (mSult2a2; 0.1 mM FFA): <18 fmol N ^6-MF-A/mg/min | Rate of N6-MF-A formation (mSult2a2; 1 mM FFA): <20 fmol N ^6-MF-A/mg/min | Rate of N6-MF-A formation (mSult2a2; 10 mM FFA): 216 ± 3 fmol N ^6-MF-A/mg/min | Rate of N6-MF-A formation (hSULT1A1; 0.1 mM FFA): 73.5 ± 1.1 fmol N ^6-MF-A/mg/min | Rate of N6-MF-A formation (hSULT1A1; 1 mM FFA): 575 ± 2 fmol N ^6-MF-A/mg/min | Rate of N6-MF-A formation (corr.) (hSULT1A1; 1 mM FFA, corrected by actual SULT concentration in the cytosolic preparation): 57,500 fmol N ^6-MF-A/mg/min and 57,500 ± 200 fmol N ^6-MF-A/mg/min | ratio of N6-MF-A formation rate, hSULT1A1 vs hSULT1A2, 1A3, 1B1, 1C3 and 2A1 (hSULT1A1; 1 mM FFA, corrected rates): 11- to 30 fold | Rate of N6-MF-A formation (hSULT1A1; 10 mM FFA): 931 ± 5 fmol N ^6-MF-A/mg/min | Rate of N6-MF-A formation (mSult1e1; 0.1 mM FFA): <18 fmol N ^6-MF-A/mg/min | Rate of N6-MF-A formation (mSult1e1; 1 mM FFA): 49.3 ± 1.2 fmol N ^6-MF-A/mg/min | Rate of N6-MF-A formation (mSult1e1; 10 mM FFA): 425 ± 3 fmol N ^6-MF-A/mg/min | Rate of N6-MF-A formation (rSult2a3; 0.1 mM FFA): 48.3 ± 1.3 fmol N ^6-MF-A/mg/min | Rate of N6-MF-A formation (rSult2a3; 1 mM FFA): 461 ± 8 fmol N ^6-MF-A/mg/min | Rate of N6-MF-A formation (rSult2a3; 10 mM FFA): 3,420 ± 30 fmol N ^6-MF-A/mg/min
